Reference: paper PMC5719086, “Effective in vivo gene delivery with reduced toxicity, achieved by charge and fatty acid -modified cell penetrating peptide” (Scientific Reports, 2017)
Where two headings read alike, the source gives them in different places. Square brackets hold non-standard residues; d marks the D form. Peptide text beside a SMILES is read from it. * marks the point of attachment. Docosanoyl = CCCCCCCCCCCCCCCCCCCCCC(=O)*; Stearoyl = CCCCCCCCCCCCCCCCCC(=O)*; Decanoyl = CCCCCCCCCC(=O)*; Orn = NCCC[C@H](N)C(=O)O

How the values were obtained:
mouse RBC = test: Hemolysis assay (activity towards cell membranes); format: cell-based; conditions: 1 h 37 °C, triplicates
Procedure: The ability of the peptides to lyse the red blood cells (RBC) in PBS was used as a measure of membrane activity. To obtain fresh mouse RBC, blood was collected from the saphenous vein using sodium-heparinized (80 iu/ml ± 30%) blood collection capillaries (Marienfeld, Germany) and transferred to heparinized blood collecting tubes (Sarstedt, Germany). To isolate RBCs, the whole blood was centrifuged for 15 minutes at 300 × g, followed by removal of the plasma. The RBCs were then washed three times with 1 × PBS (RBC pelleting with 15 minutes at 300 × g). The resulting RBCs were then resuspended in PBS at 4% (v/v).
For the analysis, 200 μl of RBC suspension was added to 200 μl of peptide solution or peptide/pDNA complexes in 5% glucose (final RBC concentration 2%) and gently vortexed. The peptide/pDNA complexes were prepared using a fixed 1 μg of pDNA and varying amount of the peptide. Following this, samples were incubated for 1 hour at 37 °C with gentle stirring. After incubation, the RBCs were pelleted (15 minutes at 300 × g) and the amount of hemoglobin in the supernatant was assessed by measuring the absorbance at 540 nm using a 96-well microplate reader. The experiments were conducted in triplicates.
100% of hemolysis was defined as the RBCs treated with 0.1% Triton-X100 in PBS and 0% was obtained with cells incubated in 5% glucose solution. % of hemolysis was calculated by the formula: % Hemolysis = [(Asample − Aglucose)/Atriton − Aglucose)] × 100.

[1] = Complex stability in FBS, gel shift assay; conditions: 37 °C; for pDNA migration from complexes after 48 h in serum (in words): serum and/or triton + heparin dissociation
Procedure: Then the samples were mixed with the DNA loading dye and electrophoresed exactly as stated above in the Gel shift assay description, using 0.1 µg of pDNA per lane. ZipRuler Express DNA Ladder 2 (ThermoFisher Scientific) was added to each gel.
The stability of the complexes after incubation in FBS, visualized by gel shift assay.

proteinase K = target: T1, proteinase K (Parengyodontium album, UniProt P06873); test: Proteinase K treatment of CPP/pDNA complexes; format: in vitro ADME; conditions: 26 °C; for stability of the complexes against proteinase K (in words): CPP/pDNA complexes at N/P2, accessible pDNA over time by intercalating dye; for Proteinase K: t1/2 (min) of the complexed pDNA (95%CI): CPP/pDNA complexes at N/P2 in MQ, proteinase K ~2.4 U per well, accessible pDNA by PicoGreen fluorescence, normalized to free pDNA
T1 construct: purchased Thermo Scientific
T1 sequence (P06873 106-384): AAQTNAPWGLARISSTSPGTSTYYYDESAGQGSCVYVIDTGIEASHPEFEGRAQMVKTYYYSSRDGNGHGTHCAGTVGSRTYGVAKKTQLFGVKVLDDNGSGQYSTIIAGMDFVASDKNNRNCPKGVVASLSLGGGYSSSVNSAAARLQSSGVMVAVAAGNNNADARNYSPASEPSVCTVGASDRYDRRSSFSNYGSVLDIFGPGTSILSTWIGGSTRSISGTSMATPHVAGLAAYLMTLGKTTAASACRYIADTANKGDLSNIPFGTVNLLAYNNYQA
Procedure: For the proteinase K treatment, 30 μl of pre-formed CPP/pDNA complex solution (0.3, 0.2, 0.1 and 0.05 µg of pDNA per sample) or CPP in MQ was transferred to a black 96-well plate and 90 µl of MQ was added. After a short period of mixing, fluorescent DNA intercalating dye dilution was added (Quant-iT™ PicoGreen®, ThermoFisher Scientific) and incubated for 5 minutes at room temperature. The fluorescence was measured (Synergy MX, BioTek; λex 492 and λem 535) to quantify the initial accessibility of pDNA. Thereafter 10 μl of Proteinase K (Thermo Scientific) was added with the final enzyme concentration ~2.4 U per well. Fluorescence was measured over an indicated period at 26 °C. The readings were normalized against the fluorescence of free pDNA.

[2] = naked peptide in 5% glucose, mouse RBC 2% final in PBS, hemoglobin absorbance 540 nm, 100% = 0.1% Triton X-100, read-out: EC50 (μM) of CPP (membrane activity, concentration required to lyse 50% of the cells)
[3] = peptide/pDNA complexes, fixed 1 μg pDNA and varying peptide, mouse RBC 2% final, absorbance 540 nm, read-out: EC50 (μM) of CPP/pDNA (membrane activity)

SMILES	EC50 (mouse RBC; [2])	EC50 (mouse RBC; [3])	time to pDNA degradation (DNA smear) in serum ([1]; 50% FBS, EtBr)	onset of DNA migration from complexes in serum ([1]; complexes N/P2 (jetPEI N/P8) in 50% FBS, EtBr)	stability of the complexes against proteinase K (in words) (proteinase K)	Proteinase K: t1/2 (min) of the complexed pDNA (95%CI) (proteinase K)	pDNA migration from complexes after 48 h in serum (in words) ([1]; 50% FBS)
CC(C)C[C@H](NC(=O)[C@H](CC(C)C)NC(=O)[C@H](CCCN)NC(=O)[C@H](CCCN)NC(=O)[C@H](CC(C)C)NC(=O)[C@H](C)NC(=O)[C@H](C)NC(=O)[C@H](C)NC(=O)[C@H](C)NC(=O)[C@H](CC(C)C)NC(=O)[C@H](CCCN)NC(=O)[C@H](CCCN)NC(=O)[C@H](CC(C)C)NC(=O)[C@H](CC(C)C)NC(=O)[C@H](CCCCN)NC(=O)CNC(=O)[C@H](CC(C)C)NC(=O)[C@H](CC(C)C)NC(=O)[C@H](Cc1ccc(O)cc1)NC(=O)CNC(=O)[C@H](C)N)C(N)=O [C0-PF14] (H-AGYLLGKLL[Orn][Orn]LAAAAL[Orn][Orn]LL-NH2)	5.36 µM	7.09 µM	about 24 h	≤ 0.5 h	clearly a favorable substrate to the proteinase	0.5 (−0.8 ± 1.5) min	–
CCCCCCCCCC(=O)N[C@@H](C)C(=O)NCC(=O)N[C@@H](Cc1ccc(O)cc1)C(=O)N[C@@H](CC(C)C)C(=O)N[C@@H](CC(C)C)C(=O)NCC(=O)N[C@@H](CCCCN)C(=O)N[C@@H](CC(C)C)C(=O)N[C@@H](CC(C)C)C(=O)N[C@@H](CCCN)C(=O)N[C@@H](CCCN)C(=O)N[C@@H](CC(C)C)C(=O)N[C@@H](C)C(=O)N[C@@H](C)C(=O)N[C@@H](C)C(=O)N[C@@H](C)C(=O)N[C@@H](CC(C)C)C(=O)N[C@@H](CCCN)C(=O)N[C@@H](CCCN)C(=O)N[C@@H](CC(C)C)C(=O)N[C@@H](CC(C)C)C(N)=O [C10-PF14] (Decanoyl-AGYLLGKLL[Orn][Orn]LAAAAL[Orn][Orn]LL-NH2)	0.36 µM	0.86 µM	–	–	–	26.7 (20.1 ± 32.5) min	less migration and less degradation
CCCCCCCCCCCCCCCCCCCCCC(=O)N[C@@H](C)C(=O)NCC(=O)N[C@@H](Cc1ccc(O)cc1)C(=O)N[C@@H](CC(C)C)C(=O)N[C@@H](CC(C)C)C(=O)NCC(=O)N[C@@H](CCCCN)C(=O)N[C@@H](CC(C)C)C(=O)N[C@@H](CC(C)C)C(=O)N[C@@H](CCCN)C(=O)N[C@@H](CCCN)C(=O)N[C@@H](CC(C)C)C(=O)N[C@@H](C)C(=O)N[C@@H](CCCN)C(=O)N[C@@H](CCCN)C(=O)N[C@@H](C)C(=O)N[C@@H](CC(C)C)C(=O)N[C@@H](CCCN)C(=O)N[C@@H](CCCN)C(=O)N[C@@H](CC(C)C)C(=O)N[C@@H](CC(C)C)C(N)=O [C22-PF14-O] (Docosanoyl-AGYLLGKLL[Orn][Orn]LA[Orn][Orn]AL[Orn][Orn]LL-NH2)	–	–	–	–	virtually inaccessible to the enzyme	–	migration of pDNA from some of the complexes could be observed
CCCCCCCCCCCCCCCCCCCCCC(=O)N[C@@H](C)C(=O)NCC(=O)N[C@@H](Cc1ccc(O)cc1)C(=O)N[C@@H](CC(C)C)C(=O)N[C@@H](CC(C)C)C(=O)NCC(=O)N[C@@H](CCCCN)C(=O)N[C@@H](CC(C)C)C(=O)N[C@@H](CC(C)C)C(=O)N[C@@H](CCCN)C(=O)N[C@@H](CCCN)C(=O)N[C@@H](CC(C)C)C(=O)N[C@@H](C)C(=O)N[C@@H](C)C(=O)N[C@@H](C)C(=O)N[C@@H](C)C(=O)N[C@@H](CC(C)C)C(=O)N[C@@H](CCCN)C(=O)N[C@@H](CCCN)C(=O)N[C@@H](CC(C)C)C(=O)N[C@@H](CC(C)C)C(N)=O [C22-PF14] (Docosanoyl-AGYLLGKLL[Orn][Orn]LAAAAL[Orn][Orn]LL-NH2)	0.64 µM	1.47 µM	–	–	–	162.7 (159.6 ± 166.7) min	less migration and less degradation
CCCCCCCCCCCCCCCCCC(=O)N[C@@H](C)C(=O)NCC(=O)N[C@@H](Cc1ccc(O)cc1)C(=O)N[C@@H](CC(C)C)C(=O)N[C@@H](CC(C)C)C(=O)NCC(=O)N[C@@H](CCCCN)C(=O)N[C@@H](CC(C)C)C(=O)N[C@@H](CC(C)C)C(=O)N[C@@H](CCC(=O)O)C(=O)N[C@@H](CCCN)C(=O)N[C@@H](CC(C)C)C(=O)N[C@@H](C)C(=O)N[C@@H](C)C(=O)N[C@@H](C)C(=O)N[C@@H](C)C(=O)N[C@@H](CC(C)C)C(=O)N[C@@H](CCCN)C(=O)N[C@@H](CCCN)C(=O)N[C@@H](CC(C)C)C(=O)N[C@@H](CC(C)C)C(N)=O [PF14-E] (Stearoyl-AGYLLGKLLE[Orn]LAAAAL[Orn][Orn]LL-NH2)	0.67 µM	2.36 µM	–	–	–	16.7 (10.5 ± 21.8) min	–
CCCCCCCCCCCCCCCCCC(=O)N[C@@H](C)C(=O)NCC(=O)N[C@@H](Cc1ccc(O)cc1)C(=O)N[C@@H](CC(C)C)C(=O)N[C@@H](CC(C)C)C(=O)NCC(=O)N[C@@H](CCCCN)C(=O)N[C@@H](CC(C)C)C(=O)N[C@@H](CC(C)C)C(=O)N[C@@H](CCCN)C(=O)N[C@@H](CCCN)C(=O)N[C@@H](CC(C)C)C(=O)N[C@@H](C)C(=O)N[C@@H](CCCN)C(=O)N[C@@H](CCCN)C(=O)N[C@@H](C)C(=O)N[C@@H](CC(C)C)C(=O)N[C@@H](CCCN)C(=O)N[C@@H](CCCN)C(=O)N[C@@H](CC(C)C)C(=O)N[C@@H](CC(C)C)C(N)=O [PF14-O] (Stearoyl-AGYLLGKLL[Orn][Orn]LA[Orn][Orn]AL[Orn][Orn]LL-NH2)	0.6 µM	1.17 µM	–	–	–	94.2 (90.7 ± 97.4) min	migration of pDNA from some of the complexes could be observed
